pIC50: −log10 of the molar value.

Among the data in ChEMBL document CHEMBL5055672, “Design, Synthesis, Biological Evaluation, and Computational Studies of Novel Fluorinated Candidates as PI3K Inhibitors: Targeting Fluorophilic Binding Sites” (J Med Chem, 2021) are inhibition of growth, Activity and IC50 values, retold here.

One assay deals with HOP-92. In words: Cytotoxicity against human HOP-92 cells assessed as growth inhibition at 10 uM after 48 hrs by sulforhodamine B assay. Particulars: read-out: GI. Type of assay: functional.
Assay [1] has as its system MCF7. In words: Induction of cell cycle arrest in human MCF7 cells assessed as accumulation of cells at G phase at IC50 concentration by Propidium iodide staining based flow cytometric analysis (reference value: 1.76%). In kind it is functional. Background: In flow cytometry, cells or beads pass a laser one at a time.
Another assay concerns CAKI-1. In words: Cytotoxicity against human CAKI-1 cells assessed as growth inhibition at 10 uM after 48 hrs by sulforhodamine B assay. The conditions noted are these: read-out: GI. In kind it is functional. In general terms: In SRB staining, fixed cells bind dye roughly in proportion to their protein.
The next assay relates to SN12C. The experiment in a line: Cytotoxicity against human SN12C cells assessed as growth inhibition at 10 uM after 48 hrs by sulforhodamine B assay. Type of assay: functional. Particulars: read-out: GI.
Assay [2] has as its system MCF7. The experiment in a line: Induction of apoptosis in human MCF7 cells assessed as early apoptotic cells at 13.30 uM after 48 hrs by annexin V-FITC/propidium iodide staining based flow cytometric analysis (reference value: 0.36%). Type of assay: functional. The conditions noted are these: dose 13.3 µM.
In assay [3] the test system is MCF7. The experiment in a line: Induction of cell cycle arrest in human MCF7 cells assessed as accumulation of cells at G2/M phase at IC50 concentration by Propidium iodide staining based flow cytometric analysis (reference value: 10.94%). Type of assay: functional.
In a further assay the test system is A549. In words: Cytotoxicity against human A549 cells assessed as growth inhibition at 10 uM after 48 hrs by sulforhodamine B assay. In kind it is functional. Particulars: read-out: GI.
Another assay concerns T47D. In words: Cytotoxicity against human T47D cells assessed as growth inhibition at 10 uM after 48 hrs by sulforhodamine B assay. Type of assay: functional. The conditions noted are these: read-out: GI.
Assay [4] addresses T1, Phosphatidylinositol 4,5-bisphosphate 3-kinase catalytic subunit delta isoform (Homo sapiens, UniProt O00329).
T1 sequence (O00329 whole entry): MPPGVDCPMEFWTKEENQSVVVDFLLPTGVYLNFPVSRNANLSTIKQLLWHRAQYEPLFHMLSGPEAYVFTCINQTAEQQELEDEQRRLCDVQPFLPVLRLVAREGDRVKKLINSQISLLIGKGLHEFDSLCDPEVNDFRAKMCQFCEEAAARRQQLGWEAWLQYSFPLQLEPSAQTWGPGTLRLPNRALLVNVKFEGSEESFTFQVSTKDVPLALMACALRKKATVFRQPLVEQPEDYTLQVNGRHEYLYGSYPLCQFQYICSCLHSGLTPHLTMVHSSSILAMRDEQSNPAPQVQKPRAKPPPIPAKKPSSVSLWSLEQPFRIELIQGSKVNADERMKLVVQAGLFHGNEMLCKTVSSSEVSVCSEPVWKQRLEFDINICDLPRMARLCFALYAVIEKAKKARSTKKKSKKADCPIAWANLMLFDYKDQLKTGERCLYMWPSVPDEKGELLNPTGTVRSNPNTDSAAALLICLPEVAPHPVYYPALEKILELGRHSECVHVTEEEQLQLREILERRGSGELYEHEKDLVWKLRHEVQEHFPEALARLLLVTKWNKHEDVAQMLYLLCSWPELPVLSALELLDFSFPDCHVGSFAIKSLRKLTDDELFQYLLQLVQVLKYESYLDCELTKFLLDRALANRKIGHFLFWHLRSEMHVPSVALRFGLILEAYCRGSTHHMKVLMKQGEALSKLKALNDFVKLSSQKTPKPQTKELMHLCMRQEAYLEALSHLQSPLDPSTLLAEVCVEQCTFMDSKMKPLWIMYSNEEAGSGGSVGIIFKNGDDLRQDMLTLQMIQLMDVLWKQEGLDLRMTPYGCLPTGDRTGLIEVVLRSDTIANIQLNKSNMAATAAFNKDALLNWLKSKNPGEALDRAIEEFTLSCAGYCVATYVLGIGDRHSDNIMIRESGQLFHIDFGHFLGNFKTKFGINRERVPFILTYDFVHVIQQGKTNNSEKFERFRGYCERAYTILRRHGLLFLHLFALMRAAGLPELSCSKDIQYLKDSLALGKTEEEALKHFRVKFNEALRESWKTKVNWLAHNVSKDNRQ
In words: Inhibition of PI3Kdelta (unknown origin) using PIP2 as substrate preincubated for 10 mins followed by substrate addition and measured after 1 hr by ELISA. (An ELISA detects its analyte on a solid surface through an enzyme-linked reagent.)

In assay [5] the test system is MCF7. The experiment in a line: Induction of apoptosis in human MCF7 cells assessed as necrotic cells at 13.30 uM after 48 hrs by annexin V-FITC/propidium iodide staining based flow cytometric analysis (reference value: 1.26%). Particulars: dose 13.3 µM. Type of assay: functional.
For assay [6], the target named is Phosphatidylinositol 4,5-bisphosphate 3-kinase catalytic subunit alpha isoform (Homo sapiens, UniProt P42336). In words: Inhibition of PI3Kalpha (unknown origin) using PIP2 as substrate preincubated for 10 mins followed by substrate addition and measured after 1 hr by ELISA.
Phosphatidylinositol 4,5-bisphosphate 3-kinase catalytic subunit alpha isoform, sequence (P42336 whole entry, canonical isoform): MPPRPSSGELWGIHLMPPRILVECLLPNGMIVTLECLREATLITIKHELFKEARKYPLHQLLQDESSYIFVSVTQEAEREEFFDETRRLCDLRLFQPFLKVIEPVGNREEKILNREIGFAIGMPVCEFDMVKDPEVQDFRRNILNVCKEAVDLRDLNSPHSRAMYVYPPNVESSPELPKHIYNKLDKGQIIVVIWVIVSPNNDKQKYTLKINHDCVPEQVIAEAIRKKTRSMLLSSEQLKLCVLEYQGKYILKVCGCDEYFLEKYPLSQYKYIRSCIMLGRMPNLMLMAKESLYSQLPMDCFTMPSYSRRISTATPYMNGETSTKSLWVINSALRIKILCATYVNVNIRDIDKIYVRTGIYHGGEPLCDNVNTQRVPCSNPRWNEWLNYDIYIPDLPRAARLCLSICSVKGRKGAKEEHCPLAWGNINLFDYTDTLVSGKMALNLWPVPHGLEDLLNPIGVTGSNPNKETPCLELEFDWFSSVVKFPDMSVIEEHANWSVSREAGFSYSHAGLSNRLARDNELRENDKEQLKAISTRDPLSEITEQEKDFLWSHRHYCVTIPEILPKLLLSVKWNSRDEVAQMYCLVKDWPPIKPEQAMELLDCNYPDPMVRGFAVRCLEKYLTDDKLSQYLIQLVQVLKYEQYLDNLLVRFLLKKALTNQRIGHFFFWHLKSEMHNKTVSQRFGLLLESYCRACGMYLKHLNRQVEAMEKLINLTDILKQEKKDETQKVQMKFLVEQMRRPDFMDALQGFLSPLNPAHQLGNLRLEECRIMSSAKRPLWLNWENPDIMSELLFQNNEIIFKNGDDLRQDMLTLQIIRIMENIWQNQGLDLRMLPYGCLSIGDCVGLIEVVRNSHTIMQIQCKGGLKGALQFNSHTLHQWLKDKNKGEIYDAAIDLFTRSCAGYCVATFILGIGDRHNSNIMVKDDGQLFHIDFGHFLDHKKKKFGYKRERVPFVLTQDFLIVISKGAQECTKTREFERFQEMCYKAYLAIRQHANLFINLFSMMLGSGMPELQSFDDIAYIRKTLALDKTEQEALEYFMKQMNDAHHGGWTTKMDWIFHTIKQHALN
The subject of a further assay is HCT-15. In words: Cytotoxicity against human HCT-15 cells assessed as growth inhibition at 10 uM after 48 hrs by sulforhodamine B assay. Type of assay: functional. The conditions noted are these: read-out: GI.
For the next assay, the system named is UO-31. The experiment in a line: Cytotoxicity against human UO-31 cells assessed as growth inhibition at 10 uM after 48 hrs by sulforhodamine B assay. Type of assay: functional. Particulars: read-out: GI.
In another assay the test system is MOLT-4. The experiment in a line: Cytotoxicity against human MOLT-4 cells assessed as growth inhibition at 10 uM after 48 hrs by sulforhodamine B assay. Type of assay: functional. The conditions noted are these: read-out: GI.
Another assay has as its system MDA-MB-468. The experiment in a line: Cytotoxicity against human MDA-MB-468 cells assessed as growth inhibition at 10 uM after 48 hrs by sulforhodamine B assay. In kind it is functional. The conditions noted are these: read-out: GI.

For `COC(=O)/C=C1\S/C(=N\N=C\c2ccc(OCC(F)(F)F)cc2)N(c2ccccc2)C1=O`, the inhibition of growth at 10 µM in the assay on HOP-92 was determined as 20.1%; in the assay on CAKI-1 it was 26.6%; in the assay on SN12C, 28.6%; in the assay on A549, 15.3%; with T47D it was 14.5%; in the assay with HCT-15 it was 17.3%. Further, the results for the inhibition of growth at 10 µM in the assay with UO-31, in the assay with MOLT-4 and in the assay with MDA-MB-468 were 24.8%, 13.4% and 47.6%, respectively. Also, the Activity was 19.52% with MCF7 [1], 2.71% in the assay on MCF7 [2], 8.51% in the assay on MCF7 [3] and 7.39% in the assay on MCF7 [5]. In addition, the pIC50 (as a rule, −log10 of the IC50, conventionally taken in molar units) in assay [4] was 3.92; in [6] it was 4.11.
